Source: patent US11679107B2 (Eisai R&D Management Co., Ltd., priority 2018, dated 2023)
Read-outs that look alike come from different tables or passages of the source.

Assays:
SF3b complexes = biological target: T1, SF3b complexes (Homo sapiens, UniProt O75533+Q7RTV0); assay: Scintillation proximity assay (SPA) with [3H]-labelled pladienolide probe; assay type: binding; settings: SF3B1 (WT); geometric mean; read-out: SPA-ATS GMean IC50 (nM) SF3B1 (WT)
T1 construct: endogenous in cells; host or cells: Nuclear extracts; A HeLa S3 extract preparation is described for the in vitro splicing assay
Method in brief: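 SF3b complexes captured from nuclear extracts on anti-SF3B1 antibody SPA beads; test compounds pre-incubated 30 min before 2.5 nM [3H]-pladienolide probe added, then 30 min incubation. Bound probe read by scintillation; values from non-linear regression of concentration–response curves.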

[1] = tested on: Ad2 variant pre-mRNAs spliced in HeLa S3 nuclear extracts; assay: In vitro splicing assay (IVS), RT-qPCR of spliced product; assay type: biochemical; settings: for IC50: geometric mean; for Ratio Ad2.1/2.2: ratio of IVS IC50 Ad2.1 to Ad2.2
Method in brief: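 Read-out is one-step TaqMan RT-qPCR of spliced Ad2 mRNA with Ftz as reference, normalized to DMSO and fit by non-linear regression. Reactions held HeLa S3 nuclear extract, 2 ng Ad2-derived pre-mRNA and test compound, with 15 min preincubation. Splicing was started with ATP-containing activation buffer and run 90 min at 30 °C.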

[2] = tested on: NCI-H1568 cells (high MCL1); assay: Cell proliferation and viability, CellTiter-Glo, 72 hours; assay type: cell-based; settings: for GI50: geometric mean
Method in brief: (§1)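 ATP luminescence (CellTiter-Glo) was measured 72 h after treatment with compound at 10 μM–100 pM (11 points, half-log) in 0.1% DMSO. The Panc line was grown in RPMI-1640 plus insulin and 15% FBS, the other in 10% FBS. Data were normalised to time zero and vehicle controls, where −100% is cidal and 0% static.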

[3] = tested on: Panc 05.04 cells (SF3b K700E mutant); assay: as above; assay type: cell-based; settings: for GI50: geometric mean
Method in brief: as §1

[4] = Ad2.1 pre-mRNA substrate, read-out: qPCR-IVS-ATS GMean IC50 (nM) Ad2.1
[5] = Ad2.2 pre-mRNA substrate, read-out: qPCR-IVS-ATS GMean IC50 (nM) Ad2.2
[6] = 72 h, NCIH1568.1, -100% = cidal, 0% = static, 100% = uninhibited growth
[7] = NCI-H1568, read-out: CTGlo-ATS GMean GI50 (nM) 72 h NCIH1568.1, 72 h, NCIH1568.1
[8] = 72 h, PANC0504.1, -100% = cidal, 0% = static, 100% = uninhibited growth
[9] = Panc 05.04, read-out: CTGlo-ATS GMean GI50 (nM) 72 h PANC0504.1, 72 h, PANC0504.1
[10] = NCI-H1568, read-out: CTGlo-ATS GMean GI50 (nM) 72 h NCIH1568.1, NCIH1568.1 cells, 72 h
[11] = NCIH1568.1 cells, 72 h, −100% cidal, 0% static, 100% maximal growth
[12] = PANC0504.1 cells, 72 h, −100% cidal, 0% static, 100% maximal growth
[13] = Panc 05.04, read-out: CTGlo-ATS GMean GI50 (nM) 72 h PANC0504.1, PANC0504.1 cells, 72 h

**Q.** Which results are given for `C/C(=C\c1cccc(S(=O)(=O)N2CCCC2C)c1)[C@H]1OC(=O)CC(O)CCC(C)[C@@H](OC(=O)N2CCN(C)CC2)/C=C/[C@@H]1C` (stereo in doubt) [Compound 200, [(2S,3S,4E,6R,7R,10S)-10-hydroxy-3,7-dimethyl-2-[(E)-1-[3-[(2S)-2-methylpyrrolidin-1-yl]sulfonylphenyl]prop-1-en-2-yl]-12-oxo-1-oxacyclododec-4-en-6-yl] 4-methylpiperazine-1-carboxylate]?
**A.** IC50 (SF3b complexes): 8.03 nM; IC50 [1, 4]: 8050 nM; IC50 [1, 5]: 27 nM; Ratio Ad2.1/2.2 [1]: 297.600; CTGlo-ATS Mean MinResponse % 72 h NCIH1568.1 [2, 6]: −51.281%; GI50 [2, 7]: 24.2 nM; CTGlo-ATS Mean MinResponse % 72 h PANC0504.1 [3, 8]: −94.085%; GI50 [3, 9]: 17.4 nM

**Q.** `CC[C@H](O)[C@@H](C)C(=O)N1CCN(c2cc(F)cc(/C=C(\C)[C@H]3OC(=O)C[C@H](O)CC[C@H](C)[C@@H](OC(=O)N4CCN(C)CC4)/C=C/[C@@H]3C)c2)CC1` [Compound 72] was tested. Which IC50 (SF3b complexes) did it give?
**A.** 4.66 nM

**Q.** And the IC50 [1, 4]?
**A.** 35.8 nM

**Q.** What about the IC50 [1, 5] of the same molecule?
**A.** 14 nM

**Q.** And the GI50 [2, 10]?
**A.** 4.19 nM

**Q.** And the “CTGlo-ATS Mean MinResponse % 72 h NCIH1568.1” value [2, 11]?
**A.** −80.730%

**Q.** And the “CTGlo-ATS Mean MinResponse % 72 h PANC0504.1” value [3, 12]?
**A.** −75.581%

**Q.** What about the GI50 [3, 13] of the same molecule?
**A.** 5.68 nM

**Q.** Which IC50 (SF3b complexes) does the source give for `C/C(=C\c1cc(F)cc(N2CCOCC2)c1)[C@H]1OC(=O)C[C@H](O)CC[C@H](C)[C@@H](OC(=O)N2CCCC(N(C)C)C2)/C=C/[C@@H]1C` (stereo partly shown) [Compound 40] here?
**A.** 3.98 nM

**Q.** And the IC50 [1, 4]?
**A.** 55.9 nM

**Q.** What about the IC50 [1, 5] of the same molecule?
**A.** 28.1 nM

**Q.** What about the GI50 [2, 10] of the same molecule?
**A.** 13.3 nM

**Q.** What about the “CTGlo-ATS Mean MinResponse % 72 h NCIH1568.1” value [2, 11] of the same molecule?
**A.** −72.259%

**Q.** What about the “CTGlo-ATS Mean MinResponse % 72 h PANC0504.1” value [3, 12] of the same molecule?
**A.** −82.881%

**Q.** What about the GI50 [3, 13] of the same molecule?
**A.** 7.75 nM

**Q.** `C/C(=C\c1cc(F)cc(N2CCN(C(=O)CO)CC2)c1)[C@H]1OC(=O)C[C@H](O)CC[C@H](C)[C@@H](OC(=O)N2CCN(C)CC2)/C=C/[C@@H]1C` [Compound 135] was tested. Which IC50 (SF3b complexes) did it give?
**A.** 3.67 nM

**Q.** And the IC50 [1, 4]?
**A.** 14.9 nM

**Q.** And the IC50 [1, 5]?
**A.** 14.9 nM

**Q.** And the GI50 [2, 10]?
**A.** 2.41 nM

**Q.** What about the “CTGlo-ATS Mean MinResponse % 72 h NCIH1568.1” value [2, 11] of the same molecule?
**A.** −84.225%

**Q.** And the “CTGlo-ATS Mean MinResponse % 72 h PANC0504.1” value [3, 12]?
**A.** −90.575%

**Q.** And the GI50 [3, 13]?
**A.** 2.46 nM

**Q.** How did the IC50 (SF3b complexes) turn out when `COCCC(=O)N1CCN(c2cc(F)cc(/C=C(\C)[C@H]3OC(=O)C[C@H](O)CC[C@H](C)[C@@H](OC(=O)N4CCN(C)CC4)/C=C/[C@@H]3C)c2)CC1` [Compound 134] was run?
**A.** 2.06 nM

**Q.** And the IC50 [1, 4]?
**A.** 26.5 nM

**Q.** What about the IC50 [1, 5] of the same molecule?
**A.** 13.3 nM

**Q.** And the GI50 [2, 10]?
**A.** 3.92 nM

**Q.** What about the “CTGlo-ATS Mean MinResponse % 72 h NCIH1568.1” value [2, 11] of the same molecule?
**A.** −79.743%

**Q.** What about the “CTGlo-ATS Mean MinResponse % 72 h PANC0504.1” value [3, 12] of the same molecule?
**A.** −92.570%

**Q.** And the GI50 [3, 13]?
**A.** 4.11 nM

**Q.** `C/C(=C\c1cc(F)cc(N(C)C2CCOCC2)c1)[C@H]1OC(=O)C[C@H](O)CC[C@H](C)[C@@H](OC(=O)N2CCN(C)CC2)/C=C/[C@@H]1C` [Compound 168] was tested. Which IC50 (SF3b complexes) did it give?
**A.** 3.05 nM

**Q.** What about the IC50 [1, 4] of the same molecule?
**A.** 27.6 nM

**Q.** What about the IC50 [1, 5] of the same molecule?
**A.** 16.5 nM

**Q.** What about the GI50 [2, 10] of the same molecule?
**A.** 5.96 nM

**Q.** And the “CTGlo-ATS Mean MinResponse % 72 h NCIH1568.1” value [2, 11]?
**A.** −75.760%

**Q.** And the “CTGlo-ATS Mean MinResponse % 72 h PANC0504.1” value [3, 12]?
**A.** −86.930%

**Q.** What about the GI50 [3, 13] of the same molecule?
**A.** 10.4 nM

**Q.** With `C/C(=C\c1cc(F)cc(N2CCC[C@H]2CO)c1)[C@H]1OC(=O)C[C@H](O)CC[C@H](C)[C@@H](OC(=O)N2CCN(C)CC2)/C=C/[C@@H]1C` [Compound 15] as the molecule, how does the IC50 (SF3b complexes) read?
**A.** 6.33 nM

**Q.** And the IC50 [1, 4]?
**A.** 21.6 nM

**Q.** And the IC50 [1, 5]?
**A.** 12.3 nM

**Q.** What about the GI50 ([2]; NCI-H1568, 72 h, read-out: CTGlo-ATS GMean GI50 (nM) 72 h NCIH1568.1, NCIH1568.1 cells, 72 h) of the same molecule?
**A.** 7.58 nM

**Q.** What about the “CTGlo-ATS Mean MinResponse % 72 h NCIH1568.1” value [2, 11] of the same molecule?
**A.** −74.931%

**Q.** What about the “CTGlo-ATS Mean MinResponse % 72 h PANC0504.1” value [3, 12] of the same molecule?
**A.** −80.816%

**Q.** And the GI50 ([3]; Panc 05.04, 72 h, read-out: CTGlo-ATS GMean GI50 (nM) 72 h PANC0504.1, PANC0504.1 cells, 72 h)?
**A.** 6.23 nM

**Q.** For `C/C(=C\c1cc(F)cc(NS(=O)(=O)N(C)C)c1)[C@H]1OC(=O)C[C@H](O)CC[C@H](C)[C@@H](OC(=O)N2CCN(C)CC2)/C=C/[C@@H]1C` [Compound 248, [(2S,3S,4E,6R,7S,10R)-2-[(E)-1-[3-(dimethylsulfamoylamino)-5-fluorophenyl]prop-1-en-2-yl]-10-hydroxy-3,7-dimethyl-12-oxo-1-oxacyclododec-4-en-6-yl] 4-methylpiperazine-1-carboxylate], which IC50 (SF3b complexes) is on record?
**A.** 6.62 nM

**Q.** What about the IC50 [1, 4] of the same molecule?
**A.** > 25000 nM

**Q.** What about the IC50 [1, 5] of the same molecule?
**A.** 76.4 nM

**Q.** What about the “Ratio Ad2.1/2.2” value [1] of the same molecule?
**A.** 327.274

**Q.** And the “CTGlo-ATS Mean MinResponse % 72 h NCIH1568.1” value [2, 6]?
**A.** −46.753%

**Q.** And the GI50 [2, 7]?
**A.** 97 nM

**Q.** And the “CTGlo-ATS Mean MinResponse % 72 h PANC0504.1” value [3, 8]?
**A.** −92.622%

**Q.** And the GI50 [3, 9]?
**A.** 75.8 nM
